How the values were obtained:
[1] = test system: ENR+CD organoids (ISC to Paneth cell differentiation); assay: Primary screen: basal (non-stimulated) lysozyme secretion LYZ.NS, 2.5-D 384-well ENR+CD organoid differentiation; assay type: cell-based, mouse
Text: (§1) High-throughput screening.

[2] = test system: ENR+CD organoids; assay: Primary screen: ATP (CellTiter-Glo 3D, CTG) cell number/viability, 2.5-D 384-well ENR+CD organoids;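 further: compounds given at plating and again on day 3 over a 6-day differentiation from ENR+CV stem-cell-enriched precursors, ATP measured on day 6, plate median as control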
[3] = test system: ENR+CD organoids (ISC to Paneth cell differentiation); assay: Primary screen: CCh-stimulated lysozyme secretion LYZ.S, 2.5-D 384-well ENR+CD organoid differentiation; assay type: cell-based, mouse; details: primary screen
Text: as §1

[4] = primary screen, dose 0.08 uM, FC relative to plate median
[5] = primary screen, dose 0.08 uM, standard z score
[6] = primary screen, dose 0.40 uM, FC relative to plate median
[7] = primary screen, dose 0.40 uM, standard z score
[8] = primary screen, dose 2.00 uM, FC relative to plate median
[9] = primary screen, dose 2.00 uM, standard z score
[10] = primary screen, dose 10.00 uM, FC relative to plate median
[11] = primary screen, dose 10.00 uM, standard z score
[12] = dose 0.08 uM, FC relative to plate median
[13] = dose 0.40 uM, FC relative to plate median
[14] = dose 2.00 uM, FC relative to plate median
[15] = dose 10.00 uM, FC relative to plate median
[16] = primary screen, standard z score, dose 0.08 uM
[17] = primary screen, standard z score, dose 0.40 uM
[18] = primary screen, standard z score, dose 2.00 uM
[19] = primary screen, standard z score, dose 10.00 uM
[20] = primary screen; dose 0.08 uM; FC vs plate median
[21] = primary screen; dose 0.40 uM; FC vs plate median
[22] = primary screen; dose 2.00 uM; FC vs plate median
[23] = primary screen; dose 10.00 uM; FC vs plate median
[24] = dose 0.08 uM, FC vs plate median
[25] = dose 0.40 uM, FC vs plate median
[26] = dose 2.00 uM, FC vs plate median
[27] = dose 10.00 uM, FC vs plate median

## CCCN[C@H]1CCc2nc(N)sc2C1 [Pramipexole]
[1]; [4]
  Dose.FC.LYZ.NS: 0.057 log2 fold change
[1]; [5]
  Z.LYZ.NS: 0.495
[1]; [6]
  Dose.FC.LYZ.NS: 0.027 log2 fold change
[1]; [7]
  Z.LYZ.NS: 0.234
[1]; [8]
  Dose.FC.LYZ.NS: 0.027 log2 fold change
[1]; [9]
  Z.LYZ.NS: 0.239
[1]; [10]
  Dose.FC.LYZ.NS: 0.005 log2 fold change
[1]; [11]
  Z.LYZ.NS: 0.043
[2]; [4]
  Dose.FC.CTG: 0.109 log2 fold change
[2]; [6]
  Dose.FC.CTG: 0.182 log2 fold change
[2]; [8]
  Dose.FC.CTG: 0.026 log2 fold change
[2]; [10]
  Dose.FC.CTG: 0.231 log2 fold change
[3]; [12]
  Dose.FC.LYZ.S: 0.050 log2 fold change
[3]; [13]
  Dose.FC.LYZ.S: 0.123 log2 fold change
[3]; [14]
  Dose.FC.LYZ.S: 0.041 log2 fold change
[3]; [15]
  Dose.FC.LYZ.S: 0.071 log2 fold change

## c1ccc(CNc2nc(NCc3ccccc3)c3ccccc3n2)cc1 [DBeQ]
[1]; primary screen, dose 0.08 uM
  Dose.FC.LYZ.NS: 0.097 log2 fold change
[1]; primary screen, dose 0.40 uM
  Dose.FC.LYZ.NS: 0.064 log2 fold change
[1]; primary screen, dose 2.00 uM
  Dose.FC.LYZ.NS: −0.048 log2 fold change
[1]; primary screen, dose 10.00 uM
  Dose.FC.LYZ.NS: −0.296 log2 fold change
[1]; [16]
  Z.LYZ.NS: 0.844
[1]; [17]
  Z.LYZ.NS: 0.558
[1]; [18]
  Z.LYZ.NS: −0.414
[1]; [19]
  Z.LYZ.NS: −2.577
[2]; primary screen, dose 0.08 uM
  Dose.FC.CTG: 0.119 log2 fold change
[2]; primary screen, dose 0.40 uM
  Dose.FC.CTG: −0.013 log2 fold change
[2]; primary screen, dose 2.00 uM
  Dose.FC.CTG: 0.004 log2 fold change
[2]; primary screen, dose 10.00 uM
  Dose.FC.CTG: −1.133 log2 fold change
[2]; [16]
  Z.CTG: 0.285
[2]; [17]
  Z.CTG: −0.031
[2]; [18]
  Z.CTG: 0.010
[2]; [19]
  Z.CTG: −2.706
[3]; dose 0.08 uM
  Dose.FC.LYZ.S: 0.045 log2 fold change
[3]; dose 0.40 uM
  Dose.FC.LYZ.S: 0.210 log2 fold change
[3]; dose 2.00 uM
  Dose.FC.LYZ.S: −0.103 log2 fold change
[3]; dose 10.00 uM
  Dose.FC.LYZ.S: −0.423 log2 fold change

## COc1c(C)c(C(=O)c2ccc(N)c(C(=O)[O-])c2)n2ccccc12.[Na+] [SSR128129E]
[1]; [4]
  Dose.FC.LYZ.NS: 0.093 log2 fold change
[1]; [5]
  Z.LYZ.NS: 0.807
[1]; [6]
  Dose.FC.LYZ.NS: 0.039 log2 fold change
[1]; [7]
  Z.LYZ.NS: 0.339
[1]; [8]
  Dose.FC.LYZ.NS: 0.030 log2 fold change
[1]; [9]
  Z.LYZ.NS: 0.257
[1]; [10]
  Dose.FC.LYZ.NS: −0.098 log2 fold change
[1]; [11]
  Z.LYZ.NS: −0.850
[2]; [4]
  Dose.FC.CTG: 0.088 log2 fold change
[2]; [5]
  Z.CTG: 0.210
[2]; [6]
  Dose.FC.CTG: 0.228 log2 fold change
[2]; [7]
  Z.CTG: 0.545
[2]; [8]
  Dose.FC.CTG: 0.122 log2 fold change
[2]; [9]
  Z.CTG: 0.291
[2]; [10]
  Dose.FC.CTG: −0.026 log2 fold change
[2]; [11]
  Z.CTG: −0.063
[3]; [12]
  Dose.FC.LYZ.S: 0.086 log2 fold change
[3]; [13]
  Dose.FC.LYZ.S: 0.122 log2 fold change
[3]; [14]
  Dose.FC.LYZ.S: 0.023 log2 fold change
[3]; [15]
  Dose.FC.LYZ.S: −0.095 log2 fold change

## Cc1cc(Nc2ccc(NC(=O)c3ccc(Nc4ccnc5ccccc45)cc3)cc2)nc(N)n1 [SGI-1027]
[1]; [4]
  Dose.FC.LYZ.NS: 0.061 log2 fold change
[1]; [5]
  Z.LYZ.NS: 0.528
[1]; [6]
  Dose.FC.LYZ.NS: 0.084 log2 fold change
[1]; [7]
  Z.LYZ.NS: 0.735
[1]; [8]
  Dose.FC.LYZ.NS: 0.129 log2 fold change
[1]; [9]
  Z.LYZ.NS: 1.123
[1]; [10]
  Dose.FC.LYZ.NS: −0.005 log2 fold change
[1]; [11]
  Z.LYZ.NS: −0.046
[2]; [4]
  Dose.FC.CTG: 0.244 log2 fold change
[2]; [5]
  Z.CTG: 0.583
[2]; [6]
  Dose.FC.CTG: 0.298 log2 fold change
[2]; [7]
  Z.CTG: 0.712
[2]; [8]
  Dose.FC.CTG: 0.172 log2 fold change
[2]; [9]
  Z.CTG: 0.412
[2]; [10]
  Dose.FC.CTG: 0.052 log2 fold change
[2]; [11]
  Z.CTG: 0.125
[3]; [12]
  Dose.FC.LYZ.S: 0.060 log2 fold change
[3]; [13]
  Dose.FC.LYZ.S: 0.145 log2 fold change
[3]; [14]
  Dose.FC.LYZ.S: 0.094 log2 fold change
[3]; [15]
  Dose.FC.LYZ.S: 0.018 log2 fold change

## C[C@]12C=CC(=O)N[C@@H]1CC[C@@H]1[C@@H]2CC[C@]2(C)[C@@H](C(=O)Nc3cc(C(F)(F)F)ccc3C(F)(F)F)CC[C@@H]12 [Dutasteride]
[1]; primary screen, dose 0.08 uM
  Dose.FC.LYZ.NS: 0.065 log2 fold change
[1]; primary screen, dose 0.40 uM
  Dose.FC.LYZ.NS: 0.006 log2 fold change
[1]; primary screen, dose 2.00 uM
  Dose.FC.LYZ.NS: −0.105 log2 fold change
[1]; primary screen, dose 10.00 uM
  Dose.FC.LYZ.NS: −0.092 log2 fold change
[1]; [16]
  Z.LYZ.NS: 0.568
[1]; [17]
  Z.LYZ.NS: 0.052
[1]; [18]
  Z.LYZ.NS: −0.915
[1]; [19]
  Z.LYZ.NS: −0.799
[2]; primary screen, dose 0.08 uM
  Dose.FC.CTG: 0.057 log2 fold change
[2]; primary screen, dose 0.40 uM
  Dose.FC.CTG: −0.266 log2 fold change
[2]; primary screen, dose 2.00 uM
  Dose.FC.CTG: −0.098 log2 fold change
[2]; primary screen, dose 10.00 uM
  Dose.FC.CTG: −0.057 log2 fold change
[3]; dose 0.08 uM
  Dose.FC.LYZ.S: 0.001 log2 fold change
[3]; dose 0.40 uM
  Dose.FC.LYZ.S: −0.054 log2 fold change
[3]; dose 2.00 uM
  Dose.FC.LYZ.S: −0.074 log2 fold change
[3]; dose 10.00 uM
  Dose.FC.LYZ.S: −0.151 log2 fold change

## NC(=O)c1cccc(-c2cc(Nc3ccc(OC(F)(F)F)cc3)ncn2)c1 [GNF-2]
[1]; primary screen, dose 0.08 uM
  Dose.FC.LYZ.NS (log2 fold change): 0.159
  Z.LYZ.NS (standard z score): 1.386
[1]; primary screen, dose 0.40 uM
  Dose.FC.LYZ.NS (log2 fold change): −0.024
  Z.LYZ.NS (standard z score): −0.206
[1]; primary screen, dose 2.00 uM
  Dose.FC.LYZ.NS (log2 fold change): 0.012
  Z.LYZ.NS (standard z score): 0.102
[1]; primary screen, dose 10.00 uM
  Dose.FC.LYZ.NS (log2 fold change): −0.033
  Z.LYZ.NS (standard z score): −0.286
[2]; primary screen, dose 0.08 uM
  Dose.FC.CTG (log2 fold change): 0.157
  Z.CTG (standard z score): 0.376
[2]; primary screen, dose 0.40 uM
  Dose.FC.CTG (log2 fold change): 0.090
  Z.CTG (standard z score): 0.214
[2]; primary screen, dose 2.00 uM
  Dose.FC.CTG (log2 fold change): 0.074
  Z.CTG (standard z score): 0.176
[2]; primary screen, dose 10.00 uM
  Dose.FC.CTG (log2 fold change): 0.100
  Z.CTG (standard z score): 0.240
[3]; dose 0.08 uM
  Dose.FC.LYZ.S (log2 fold change): 0.121
[3]; dose 0.40 uM
  Dose.FC.LYZ.S (log2 fold change): 0.001
[3]; dose 2.00 uM
  Dose.FC.LYZ.S (log2 fold change): 0.046
[3]; dose 10.00 uM
  Dose.FC.LYZ.S (log2 fold change): −0.015

## Cc1cc(OCc2nnc(SC3CCCC3)n2-c2cccnc2)ccc1-c1ccc(S(C)(=O)=O)cc1 [NMS-873]
[1]; [5]
  Z.LYZ.NS: 0.853
[1]; [7]
  Z.LYZ.NS: −1.537
[1]; [9]
  Z.LYZ.NS: −2.352
[1]; [11]
  Z.LYZ.NS: −2.368
[1]; [20]
  Dose.FC.LYZ.NS: 0.098 log2 fold change
[1]; [21]
  Dose.FC.LYZ.NS: −0.177 log2 fold change
[1]; [22]
  Dose.FC.LYZ.NS: −0.270 log2 fold change
[1]; [23]
  Dose.FC.LYZ.NS: −0.272 log2 fold change
[2]; [20]
  Dose.FC.CTG: 0.174 log2 fold change
[2]; [21]
  Dose.FC.CTG: −0.051 log2 fold change
[2]; [22]
  Dose.FC.CTG: −0.910 log2 fold change
[2]; [23]
  Dose.FC.CTG: −1.542 log2 fold change
[3]; [24]
  Dose.FC.LYZ.S: 0.069 log2 fold change
[3]; [25]
  Dose.FC.LYZ.S: −0.228 log2 fold change
[3]; [26]
  Dose.FC.LYZ.S: −0.343 log2 fold change
[3]; [27]
  Dose.FC.LYZ.S: −0.375 log2 fold change

## C=CCn1c(=O)c2cnc(Nc3ccc(N4CCN(C)CC4)cc3)nc2n1-c1cccc(C(C)(C)O)n1 [MK-1775]
[1]; [5]
  Z.LYZ.NS: 0.334
[1]; [7]
  Z.LYZ.NS: −1.331
[1]; [9]
  Z.LYZ.NS: −1.869
[1]; [11]
  Z.LYZ.NS: −1.574
[1]; [20]
  Dose.FC.LYZ.NS: 0.038 log2 fold change
[1]; [21]
  Dose.FC.LYZ.NS: −0.153 log2 fold change
[1]; [22]
  Dose.FC.LYZ.NS: −0.215 log2 fold change
[1]; [23]
  Dose.FC.LYZ.NS: −0.181 log2 fold change
[2]; [20]
  Dose.FC.CTG: 0.165 log2 fold change
[2]; [21]
  Dose.FC.CTG: −0.450 log2 fold change
[2]; [22]
  Dose.FC.CTG: −0.804 log2 fold change
[2]; [23]
  Dose.FC.CTG: −1.026 log2 fold change
[3]; [24]
  Dose.FC.LYZ.S: 0.066 log2 fold change
[3]; [25]
  Dose.FC.LYZ.S: −0.217 log2 fold change
[3]; [26]
  Dose.FC.LYZ.S: −0.208 log2 fold change
[3]; [27]
  Dose.FC.LYZ.S: −0.254 log2 fold change
